Results published in US20080051393A1, “Novel cannabinoids and methods of use” (Eastern Virginia Medical School, priority 2006, published 2008).

How the values were obtained:
ICR mice [1] = assay: Tetrad model: relative immobility (RI), ring-immobility test; format: in vivo; settings: Mus musculus, iv, 40 min; i.v., ring immobility 40 min after injection; read-out: R.I. ED50
Description: (§1) ICR Mice and Materials. Male ICR mice (Harlan Laboratories, Indianapolis, Ind.) weighing between 24 to 30 g were used in all experiments. Mice were maintained on a 14:10-hr light/dark cycle with food and water available ad lib. All test groups consisted of 6 to 12 mice. Analogs dissolved in a vehicle consisting of ethanol, emulphor and saline in a ratio of 1:1:18. All chemicals for receptor binding studies were purchased from Sigma (St. Louis, Mo.) except the following: Dulbeco's modified Eagle's medium (DMEM) from GIBCO BRL (Grand Island, N.Y.), Whatman GF/B glass fiber filters from Fischer Scientific (Pittsburg, Pa.), fetal calf serum (FCS) and fetal bovine serum (FBS) from HyClone Laboratories (Logan, Utah) and Budget-Solve scintillation fluid from RPI Corp. (Mount Prospect, Ill.).
Rectal temperature was measured 30 min after the i.v. injection. The change in rectal temperature (Δ° C.) following analog administration was calculated for each animal. Relative immobility (catalepsy) was measured 40 min after the i.v. injection by the ring-immobility test. Mice were placed on a ring 5.5 cm in diameter attached to a stand at a height of 16 cm. The amount of time the mice spent motionless on the ring during the 5-minute procedure was measured, with the criteria of immobility being defined as the absence of all voluntary movements, including whisker movement, but excluding respiration. The percent immobility was calculated as: % immobility=[time immobile (sec)]/[length of session (sec)]×100. Mice that fell from the ring or actively jumped were allowed five attempts. After the fifth escape these mice were removed from the ring and not included in the calculations. Data were collected from 6-12 mice for each condition tested.
(§2) Data analysis. Based on data obtained from numerous previous in vivo studies with cannabinoids, maximal cannabinoid effects in each in vivo pharmacological procedure were estimated as follows: 90% inhibition of spontaneous activity, 100% MPE in the tail flick procedure, and −6° C. change in rectal temperature. Means and standard error (S.E.) were calculated for % MPE, number of photocell disruptions, % ring immobility and Δ° C. Analysis of variance (ANOVA) was used to determine significant differences between control and treatment groups followed by Dunnett's t-test post-hoc analysis. Statistical analysis was performed using StatView, version 5.0 (SAS Institute, Cary, N.C.). Significance was defined as a “p”<0.05. ED50's were defined as the dose at which half maximal effect occurred. For drugs that produced one or more cannabinoid effect, ED50's were calculated separately using least-squares linear regression on the linear part of the dose-effect curve for each measure in the mouse tetrad, plotted against log10 transformation of the dose.

ICR mice [2] = assay: Tetrad model: antinociception in the tail-flick procedure (TF); format: in vivo; settings: Mus musculus, iv, 20 min; i.v., tail-flick 20 min after injection; read-out: T.F. ED50
Description: as §1
(§3) Behavioral Evaluations. All animals were allowed to acclimate to the observation room overnight. Behavioral effects were assessed in the tetrad model to measure potency in decreasing spontaneous activity (SA), antinociception [tail-flick procedure, TF], rectal temperature (RT) and relative immobility (RI) catalepsy. The baselines for tail-flick latency (2-4 sec) and rectal temperature were determined prior to i.v. injections. Baseline rectal temperatures were measured using a telethermometer and a thermometer probe inserted to 25 mm (Yellow Springs Instrument Co., Yellow Springs, Ohio). The mice treated i.v. with an analog were placed in individual photocell activity chambers 5 min later. Spontaneous activity wasp monitored for 10 min in a Digiscan Animal Activity Monitor (Omnitech Electronice, Inc., Columbus, Ohio) as measured by the number of interruptions of 16 photocell beams per chamber. The total number of beam interruptions during the 10-min period was determined and presented as total counts. The mice were then assessed at 20 min following the i.v. injection for antinociception using the tail-flick reaction time to a heat stimulus. A 10-sec maximum latency was used in order to avoid tail injury. The results are presented as % MPE and are calculated as follows: % MPE=[(test latency-control latency)/(10 sec−control latency)]×100.
as §2

human CB2 receptor = molecular target: T1, human CB2 receptor (Homo sapiens, UniProt P34972); assay: CB2 receptor binding, [3H]CP55,940 displacement; settings: CHO membranes, means ± SE, N = 3
T1 construct: expressed in transfected cells; host or cells: CHO
T1 sequence (P34972 whole entry): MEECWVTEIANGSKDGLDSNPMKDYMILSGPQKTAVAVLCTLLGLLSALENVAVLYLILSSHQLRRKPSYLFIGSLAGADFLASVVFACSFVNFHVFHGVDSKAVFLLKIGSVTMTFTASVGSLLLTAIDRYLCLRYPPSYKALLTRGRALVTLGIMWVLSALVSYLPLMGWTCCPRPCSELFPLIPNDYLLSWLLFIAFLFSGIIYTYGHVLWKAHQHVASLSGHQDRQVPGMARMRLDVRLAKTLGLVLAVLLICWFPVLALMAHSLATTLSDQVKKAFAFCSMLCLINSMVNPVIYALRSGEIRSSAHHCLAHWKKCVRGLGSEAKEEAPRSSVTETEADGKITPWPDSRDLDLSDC
Protocol: (§4) Membrane Preparations. HEK-293 cells stably expressing the human CB1 receptor were cultured in DMEM with 10% FBS and Chinese Hamster Ovary (CHO) cells stably expressing the human CB2 receptor were cultured in DMEM with 10% FCS. Cells were harvested by replacement of the media with cold phosphate-buffered saline containing 1 mM EDTA followed by centrifugation at 1000×g for 5 min at 4° C. The pellet was resuspended in 50 mM Tris-HCl containing 320 mM sucrose, 2 mM EDTA and 5 mM MgCl2 (pH 7.4) (centrifugation buffer), then centrifuged at 1000×g for 10 min at 4° C. and the resulting supernatant was saved. This process was repeated twice. The supernatant fractions were combined and centrifuged at 40,000×g for 30 min at 4° C. The resulting P2 pellet was resuspended in assay buffer (50 mM Tris-HCl (pH 7.4), 3 mM MgCl2, 0.2 mM EGTA, and 100 mM NaCl) and protein was measured. Membranes were stored at −80° C. until use.
(§5) Receptor Binding. Membrane homogenates (50 μg) were incubated with 0.5 nM [^3H]CP55,940 in the presence of varying concentrations (1 nM-10 μM) of test compounds in 0.5 ml of buffer containing BSA (5 mg/ml). Non-specific binding was measured in the presence of 1 μM CP55,940. The assay was incubated at 30° C. for 1 hr and terminated by addition of ice cold 50 mM Tris-HCl+BSA (1 mg/ml) (pH 7.4) followed by filtration under vacuum through Whatman GF/B glass fiber filters with 3 washes with cold Tris buffer. Bound radioactivity was determined by liquid scintillation spectrophotometry at 50% efficiency after extraction by shaking samples for 30-60 min with Budget-Solve scintillation fluid. Data are reported as the mean ±SEM of three experiments, each performed in triplicate. Ki values were calculated from displacement data using EBDA (Equilibrium Binding Data Analysis; BIOSOFT, Milltown, N.J.).

ICR mice [3] = assay: Tetrad model: inhibition of spontaneous activity (SA); format: in vivo; settings: Mus musculus, iv, spontaneous activity 5-15 min after injection; read-out: S.A. ED50
Description: as §1, §3, §2

human CB1 receptor = molecular target: T2, human CB1 receptor (Homo sapiens, UniProt P21554); assay: CB1 receptor binding, [3H]CP55,940 displacement; settings: HEK-293 membranes, means ± SE, N = 3
T2 construct: expressed in transfected cells; host or cells: HEK-293
T2 sequence (P21554 whole entry): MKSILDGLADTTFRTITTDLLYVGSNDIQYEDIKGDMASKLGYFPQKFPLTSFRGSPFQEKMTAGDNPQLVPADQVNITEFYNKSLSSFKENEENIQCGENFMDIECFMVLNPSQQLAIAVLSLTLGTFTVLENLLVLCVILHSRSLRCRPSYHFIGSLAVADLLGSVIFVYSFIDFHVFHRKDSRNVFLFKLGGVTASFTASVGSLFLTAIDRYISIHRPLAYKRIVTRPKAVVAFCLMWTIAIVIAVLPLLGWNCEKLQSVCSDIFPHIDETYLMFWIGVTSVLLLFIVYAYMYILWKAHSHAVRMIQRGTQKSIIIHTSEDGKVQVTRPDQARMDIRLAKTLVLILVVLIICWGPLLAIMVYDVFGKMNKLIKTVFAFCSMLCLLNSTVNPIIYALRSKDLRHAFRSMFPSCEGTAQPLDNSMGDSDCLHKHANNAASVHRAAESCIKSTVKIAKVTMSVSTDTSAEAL
Protocol: as §4, §5

[4] = system: retinal ganglionic cells (RGC); assay: Rat NMDA model: retinal flat mounts, RGC count; format: in vivo; settings: NMDA treatment only
Protocol: Rat NMDA Model. To mimic glaucomatous damage to the retina without a potentially confounding effect on IOP, retinal damage was induced by NMDA in a rat model. Following baseline measurements, e.g. IOP, ERG, slit lamp, fundus photography, heart rate and blood pressure, N-methyl D-aspartate (NMDA, 2 μl of 10 mM) was injected intravitreally to induce RGC damage. […] For positive identification, a hand scanner was used each time the rat was examined. This was necessary since the examiners will be masked as to treatment group. Treatment groups consisted of either NMDA only (control), O-1812 (0.1%) or O-2545 (0.1%), O-1812 (0.1%)+SR-141716 (2 mM), O-2545 (0.1%)+SR-141716 (2 mM), O-1812 (0.1%)+SR-144258 (2 mM) and O-2545 (0.1%)+SR-144258 (2 mM). All experiments were conducted in accordance with the policies of the Institutional Animal Care and Use Committee and the ARVO policy on use of animals in experiments. A minimum of two baseline ERG measurements was recorded 1 wk prior, 1 wk and 2 wk post injection. At the end of each experiment, rats were sacrificed and their eyes were preserved for histological assessment of effects on the retina and optic nerve.
Histology. For retinal flat mounts, retinas were dissected from formalin fixed whole eyes, mounted on superfrost glass slides, stained with hematoxylin and eosin and digitally photographed. For analysis, the retina was divided into four quadrants. A minimum of five 50 μm^2 sections per quadrant were used to count cell number. The cell sections were selected to be equidistant from the optic cup for all quadrants. For optic nerve experiments, the optic nerve was dissected at the margin of the optic disk and embedded in cryo media. Sections of 10 μm thickness were cut and mounted on superfrost glass slides and stained with hematoxylin and eosin. The slides were digitally photographed.

[5] = system: IOP in a rat glaucoma model; assay: Combination therapy: IOP in a rat glaucoma model; format: in vivo, Sprague Dawley rats
Description: (§6) Rat Glaucoma Model. Compared to acute studies, a chronic rat model of glaucoma was generated. The rats were made glaucomatous by ligating three vortex veins (Hosseini, A. et al. (2006) Chronic topical administration of WIN-55-212-2 maintinas a reduction in IOP in a rat glaucoma model without adverse effects. Exp. Eye Res. 82(5):753-9). More specifically, ocular hypertension was induced in Sprague-Dawley rats by ligating 3 of 4 episcleral veins of the right eye using 9.0 nylon sutures under anesthesia with 3 mg/Kg acepromazine and 20 mg/Kg ketamine. Within 6 wk, IOP increased by at least 5 mm Hg in the operated eye. This intervention produced at least a 30% increase in IOP in the operated eye and lasted for up to 60 weeks. During this time, a 30% loss of retinal function was documented by ERG. […] Thus, the model accurately mimics the progressive damage that occurs in patients with glaucoma.
(§7) Measurements of Intraocular Pressure. IOP elevation was measured under mild sedation using a calibrated Goldmann tonometer modified for rats. Three determinations were averaged for each eye. To account for diurnal variation, all IOP's were measured between 11 am and 1 pm during the daily trough period.
Combination Therapy. Since cannabinoids and timolol, which are both known to reduce IOP, have different mechanisms of action, there is potential for a synergistic effect. The combination of timolol and a synthetic cannabinoid (WIN55 212-2, O-1812, or O-2545) to reduce IOP in a chronic rat model of ocular hypertension was examined. Surgical ligation of three of the four episcleral veins in one eye of Sprague Dawley rats caused a long lasting (>44 week) increase in IOP. IOP was measured by Goldmann tonometry at baseline (−30), 0, 30, 60 and 120 min, as was heart rate and blood pressure. For combination therapy, after baseline IOP measurement, timolol 0.5% was applied topically followed 30 min later by WIN55 212-2 1.0%, O-1812 1.0%, or O-2545 1.0%. In another experiment, O-1812 1.0% and O-2545 1.0% were administered simultaneously. An analysis for ocular irritation was performed by slit lamp examination (SLE) at baseline and 150 min.

[6] = system: IOP in a rat glaucoma model; assay: IOP after topical application in chronic rat glaucoma model; format: in vivo, Sprague-Dawley rats; settings: 1.0% topical
Description: as §6, §7
Therapeutic Regimen. For IOP Measurements (Topical application) Baseline IOP, heart rate, blood pressure and normal ocular anatomy were documented prior to drug administration. The drugs WIN 55-212-2 (0.1%, 1.0%), O-1812 (0.01%, 0.1%, 1.0%), O-2545 (0.1%, 1.0%) were all dissolved in Tocrisolve™ (vehicle). IOP, heart rate, and blood pressure were measured prior to and after 30, 60 and 120 min after topical administration. Contralateral eyes served as vehicle treated controls.

Row | SMILES | ED50 (ICR mice [1]) [mg/kg] | ED50 (ICR mice [2]) [mg/kg] | Ki (human CB2 receptor) [nM] | ED50 (ICR mice [3]) [mg/kg] | Ki (human CB1 receptor) [nM] | Reduction of RGC cell density [4] [%] | IOP at 120 min (% Baseline) ([5]; 0.5% topical alone, 120 min) | Time for which IOP was significantly decreased ([5]; timolol alone, prior experiments in this model) [min] | Time for which significant IOP reduction was maintained [6] | Effect on IOP at 30 min ([6]; 30 min) | IOP after 60 min (% of Baseline) ([6]; 60 min)
1 | C[C@H](CO)NC(=O)CCC/C=C\C/C=C\C/C=C\C/C=C\C(C)(C)CCCCn1cccn1 [Compound O-2954] | 0.57 | 0.19 | 301 ± 35.6 | 0.14 | 127 ± 2.84 |  |  |  |  |  | 
2 | C[C@H](CO)NC(=O)CCC/C=C\C/C=C\C/C=C\C/C=C\C(C)(C)CCCCn1cncn1 [Compound O-2955] | 2.21 | 1.94 | 215 ± 40.5 | 2.03 | 298 ± 33.9 |  |  |  |  |  | 
3 | C[C@H](CO)NC(=O)CCC/C=C\C/C=C\C/C=C\C/C=C\C(C)(C)CCCCN1CCOCC1 [Compound O-4316] | 0.03 | 0.04 | 22.4 ± 0.43 | 0.11 | 3.88 ± 0.22 |  |  |  |  |  | 
4 | C[C@H](CO)NC(=O)CCC/C=C\C/C=C\C/C=C\C/C=C\C(C)(C)CCCCn1ccnc1 [Compound O-4368] | 0.25 | 0.29 | 153 ± 5 | 0.68 | 90.5 ± 5 |  |  |  |  |  | 
5 | C[C@H](CO)NC(=O)CCC/C=C\C/C=C\C/C=C\C/C=C\C(C)(C)CCCCN1CCCCC1 [Compound O-4386] | 0.7 | 0.55 | 226 ± 24 | 0.79 | 92.8 ± 2.2 |  |  |  |  |  | 
6 | C[C@H](CO)NC(=O)CCC/C=C\C/C=C\C/C=C\C/C=C\C(C)(C)CCCCN1CCCC1 [Compound O-4388] | 0.84 | 0.38 | 404 ± 39 | 0.42 | 99.4 ± 5.9 |  |  |  |  |  | 
7 | CN[C@H](CC(=O)O)C(=O)O [NMDA, N-methyl D-aspartate, reference compound] |  |  |  |  |  | 49 |  |  |  |  | 
8 | CC(C)(C)NC[C@H](O)COc1nsnc1N1CCOCC1 [Timolol, timolol] |  |  |  |  |  |  | 91.5 ± 10.2 | 30 |  |  | 
9 | Cc1c(C(=O)c2cccc3ccccc23)c2cccc3c2n1[C@@H](CN1CCOCC1)CO3 [WIN 55-212-3, reference compound] |  |  |  |  |  |  |  |  | up to 120 min | significantly lowered | 86.5 ± 2.5 % of Baseline
